Experimental data published in patent US7265152B2 (ViroPharma Incorporated, priority 2002, dated 2007).
Read-outs that look alike come from different tables or passages of the source.

Tests used:
[1] = test system: HCV replicon (BB7 sequence) in Huh-7-Clone A cells; experiment: HCV replicon assay: ELISA of NS5A protein in replicon-containing cells (Inhibition of Viral RNA Replication); format: cell-based
Procedure, shortened: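 Huh-7-Clone A cells carrying subgenomic BB7 HCV replicon (G418-selectable) incubated 72 h with compound. NS5A protein quantified by cell ELISA: glutaraldehyde fixation, anti-NS5A monoclonal plus HRP secondary, TMB read at OD 650 nm. EC50 derived from 8-point serial dilution dose curve.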

HCV NS5B = molecular target: T1, HCV NS5B (Hepatitis C virus genotype 1b, UniProt Q9WMX2); experiment: Inhibition of viral RNA-dependent RNA polymerase (RdRp), in vitro biochemical assay; set-up: species or system HCV genotype 1b virus (BB7); conditions: read-out: HCV pol-BB7 IC50
T1 construct: fusion protein, of which the carboxyl terminal 21 amino acids were removed to enhance its solubility; His tag (GSHHHHHH); made in house; host or cells: E. coli
Procedure, shortened: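 Purified recombinant NS5B from a genotype 1b consensus (BB7), His-tagged, E. coli-expressed, with the C-terminal 21 residues deleted. Inhibition of RdRp activity in vitro was measured, and IC50 is the concentration giving 50% inhibition.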

[2] = Hepatitis C virus, Huh-7-Clone A, NS5A ELISA, 72-hour incubation, ranges of EC50, read-out: Replicon
[3] = purified His-tagged NS5B (BB7), carboxyl terminal 21 amino acids removed
[4] = Hepatitis C virus, ranges of EC50 in HCV replicon assay, read-out: Replicon
[5] = Hepatitis C virus, HCV replicon assay, ranges of 50% effective concentration (EC50), read-out: Replicon
[6] = HCV NS5B polymerase, BB7 (genotype 1b), values given as range classes A-D
[7] = Hepatitis C virus, HCV replicon, range of EC50, read-out: Replicon
[8] = HCV NS5B RdRp, BB7, reported as range class
[9] = Hepatitis C virus, HCV replicon assay, ranges of EC50, read-out: Replicon
[10] = HCV NS5B RdRp, BB7, class symbols A-D

## CNC(=O)c1c(-c2ccc(F)cc2)oc2cc(N(C)S(C)(=O)=O)c(OCCN3CCOCC3)cc12 [Example 52, 2-(4-Fluoro-phenyl)-6-(methanesulfonyl-methyl-amino)-5-(2-morpholin-4-yl-ethoxy)-benzofuran-3-carboxylic acid methylamide]
[1]; [2]
  EC50: < 1 µM
HCV NS5B; [3]
  IC50: ≤ 500 nM

## CNC(=O)c1c(-c2ccc(F)cc2)oc2cc(N(C)S(C)(=O)=O)c(OCc3ccc(C(=O)O)c(O)c3)cc12 [Example 39, 4-[2-(4-Fluoro-phenyl)-6-(methanesulfonyl-methyl-amino)-3-methylcarbamoyl-benzofuran-5-yloxymethyl]-2-hydroxy-benzoic acid]
[1]; [2]
  EC50: < 10 µM
HCV NS5B; [3]
  IC50: ≤ 500 nM

## CNC(=O)c1c(-c2ccc(F)cc2)oc2cc(C(N)=O)c(OC(C)C)cc12 [Example 146, 2-(4-Fluoro-phenyl)-5-isopropoxy-benzofuran-3,6-dicarboxylic acid 6-amide 3-methylamide]
[1]; ranges of EC50 in HCV replicon assay, read-out: Replicon
  EC50: > 30 µM
HCV NS5B; HCV NS5B RdRp, BB7 genotype 1b
  IC50: 500 to 5000 nM

## CNC(=O)c1c(-c2ccc(F)cc2)oc2cc(N3CCOCC3)c(OCc3ccccc3)cc12 [Example 117, 5-Benzyloxy-2-(4-fluoro-phenyl)-6-morpholin-4-yl-benzofuran-3-carboxylic acid methylamide]
[1]; [4]
  EC50: < 1 µM
HCV NS5B; HCV NS5B RdRp, BB7 genotype 1b
  IC50: ≤ 500 nM

## CNC(=O)c1c(-c2ccc(F)cc2)oc2cc(N(C)S(C)(=O)=O)c(OCc3nccs3)cc12 [Example 388, 2-(4-Fluoro-phenyl)-6-(methanesulfonyl-methyl-amino)-5-(thiazol-2-ylmethoxy)-benzofuran-3-carboxylic acid methylamide]
[1]; [5]
  EC50: < 1 µM
HCV NS5B; [6]
  IC50: ≤ 500 nM

## CNC(=O)c1c(-c2ccc(F)cc2)oc2cc(S(=O)(=O)N3CCOCC3)c(OC(C)C)cc12 [Example 142, 2-(4-Fluoro-phenyl)-5-isopropoxy-6-(morpholine-4-sulfonyl)-benzofuran-3-carboxylic acid methylamide]
[1]; [4]
  EC50: < 10 µM
HCV NS5B; HCV NS5B RdRp, BB7 genotype 1b
  IC50: ≤ 500 nM

## CNC(=O)c1c(-c2ccc(F)cc2)oc2cc(N(C(C)C)S(C)(=O)=O)c(OC)cc12 [Example 221, 2-(4-Fluoro-phenyl)-6-(isopropyl-methanesulfonyl-amino)-5-methoxy-benzofuran-3-carboxylic acid methylamide]
[1]; [7]
  EC50: < 1 µM
HCV NS5B; [8]
  IC50: ≤ 500 nM

## C=CCOc1cc2c(C(=O)NC)c(-c3ccc(F)cc3)oc2cc1N(C)S(C)(=O)=O [Example 349, 5-Allyloxy-2-(4-fluoro-phenyl)-6-(methanesulfonyl-methyl-amino)-benzofuran-3-carboxylic acid methylamide]
[1]; [9]
  EC50: < 1 µM
HCV NS5B; HCV NS5B RdRp, BB7, activity class
  IC50: ≤ 500 nM

## CNC(=O)c1c(-c2ccccc2)oc2cc(C)c(OC)cc12 [Example 14, 5-Methoxy-6-methyl-2-phenyl-benzofuran-3-carboxylic acid methylamide]
[1]; [2]
  EC50: < 1 µM
HCV NS5B; [3]
  IC50: ≤ 500 nM

## CNC(=O)c1c(-c2ccc(F)cc2)oc2cc(-c3cc(C4CC4)no3)c(OC(C)C)cc12 [Example 241, 6-(3-Cyclopropyl-isoxazol-5-yl)-2-(4-fluoro-phenyl)-5-isopropoxy-benzofuran-3-carboxylic acid methylamide]
[1]; [7]
  EC50: < 10 µM
HCV NS5B; [8]
  IC50: 500 to 5000 nM

## CNC(=O)c1c(-c2ccc(F)cc2)oc2cc(N(CC3CC3)S(C)(=O)=O)c(OC)cc12 [Example 330, 6-(Cyclopropylmethyl-methanesulfonyl-amino)-2-(4-fluoro-phenyl)-5-methoxy-benzofuran-3-carboxylic acid methylamide]
[1]; [9]
  EC50: < 1 µM
HCV NS5B; [10]
  IC50: ≤ 500 nM

## CNC(=O)c1c(-c2ccc(F)cc2)oc2cc(N(Cc3c(C)noc3C)S(C)(=O)=O)c(OC(C)C)cc12 [Example 284, 6-[(3,5-Dimethyl-isoxazol-4-ylmethyl)-methanesulfonyl-amino]-2-(4-fluoro-phenyl)-5-isopropoxy-benzofuran-3-carboxylic acid methylamide]
[1]; [9]
  EC50: < 10 µM
HCV NS5B; [10]
  IC50: ≤ 500 nM

## CNC(=O)c1c(-c2ccc(F)cc2)oc2cc(N3CCOCC3)c(OCc3noc(C(C)(C)C)n3)cc12 [Example 204, 5-(5-tert-Butyl-[1,2,4]oxadiazol-3-ylmethoxy)-2-(4-fluoro-phenyl)-6-morpholin-4-yl-benzofuran-3-carboxylic acid methylamide]
[1]; [7]
  EC50: < 1 µM
HCV NS5B; [8]
  IC50: ≤ 500 nM

## CNC(=O)c1c(-c2ccc(CNC(C)=O)cc2)oc2ccc(OC(C)C)cc12 [Example 4, 2-[4-(Acetylamino-methyl)-phenyl]-5-isopropoxy-benzofuran-3-carboxylic acid methylamide]
[1]; [2]
  EC50: < 30 µM
HCV NS5B; [3]
  IC50: 500 to 5000 nM

## CNC(=O)c1c(-c2ccc(C(F)(F)F)cc2)oc2ccc(OC)cc12 [Example 56, 5-Methoxy-2-(4-trifluoromethyl-phenyl)-benzofuran-3-carboxylic acid methylamide]
[1]; [2]
  EC50: < 10 µM
HCV NS5B; [3]
  IC50: 500 to 5000 nM

## CCS(=O)(=O)Nc1cc2oc(-c3ccc(F)cc3)c(C(=O)NC)c2cc1OC(C)C [Example 156]
[1]; Hepatitis C virus, read-out: Replicon (μM)
  EC50: < 10 µM
HCV NS5B; HCV NS5B RdRp, BB7 genotype 1b
  IC50: ≤ 500 nM

## CCOc1ccc2oc(-c3ccccc3)c(C(=O)NC)c2c1 [Example 57, 5-Ethoxy-2-phenyl-benzofuran-3-carboxylic acid methylamide]
[1]; [2]
  EC50: > 30 µM
HCV NS5B; [3]
  IC50: 500 to 5000 nM

## CNC(=O)c1c(-c2ccc(F)cc2)oc2cc(N3CCC(O)C3)c(OC(C)C)cc12 (stereo not drawn) [Example 110]
[1]; [4]
  EC50: < 1 µM
HCV NS5B; HCV NS5B RdRp, BB7 genotype 1b
  IC50: ≤ 500 nM

## CNC(=O)c1c(-c2ccc(F)cc2)oc2cc(-c3ncon3)c(OC(C)C)cc12 [Example 205, 2-(4-Fluoro-phenyl)-5-isopropoxy-6-[1,2,4]oxadiazol-3-yl-benzofuran-3-carboxylic acid methylamide]
[1]; [7]
  EC50: < 1 µM
HCV NS5B; [8]
  IC50: ≤ 500 nM

## CNC(=O)c1c(-c2ccc(F)cc2)oc2cc(N(CCF)S(C)(=O)=O)c(OC)cc12 [Example 307, 6-[(2-Fluoro-ethyl)-methanesulfonyl-amino]-2-(4-fluoro-phenyl)-5-methoxy-benzofuran-3-carboxylic acid methylamide]
[1]; [9]
  EC50: < 1 µM
HCV NS5B; [10]
  IC50: ≤ 500 nM

## CNC(=O)c1c(-c2ccc(F)cc2)oc2cc(N(C)S(C)(=O)=O)c(OCc3nc(C(=O)O)cs3)cc12 [Example 393, 2-[2-(4-Fluoro-phenyl)-6-(methanesulfonyl-methyl-amino)-3-methylcarbamoyl-benzofuran-5-yloxymethyl]-thiazole-4-carboxylic acid]
[1]; [5]
  EC50: > 30 µM
HCV NS5B; [6]
  IC50: ≤ 500 nM

## CNC(=O)c1c(-c2ccc(F)cc2)oc2cc(-c3cccnc3)c(OC)cc12 [Example 236, 2-(4-Fluoro-phenyl)-5-methoxy-6-pyridin-3-yl-benzofuran-3-carboxylic acid methylamide]
[1]; [7]
  EC50: < 1 µM
HCV NS5B; [8]
  IC50: ≤ 500 nM

## CNC(=O)c1c(-c2cc(F)c(F)cc2F)oc2ccc(OC)cc12 [Example 62, 5-Methoxy-2-(2,4,5-trifluoro-phenyl)-benzofuran-3-carboxylic acid methylamide]
[1]; [2]
  EC50: < 30 µM
HCV NS5B; [3]
  IC50: 5000 to 30000 nM

## CCN(c1cc2oc(-c3ccc(F)cc3)c(C(=O)NC)c2cc1OC)S(C)(=O)=O [Example 277, 6-(Ethyl-methanesulfonyl-amino)-2-(4-fluoro-phenyl)-5-methoxy-benzofuran-3-carboxylic acid methylamide]
[1]; [9]
  EC50: < 1 µM
HCV NS5B; [10]
  IC50: ≤ 500 nM

## CNC(=O)c1c(-c2ccc(F)cc2)oc2cc(O)c(O)cc12 [Example 192, 2-(4-Fluoro-phenyl)-5,6-dihydroxy-benzofuran-3-carboxylic acid methylamide]
[1]; [7]
  EC50: > 30 µM
HCV NS5B; [8]
  IC50: 5000 to 30000 nM

## CNC(=O)c1c(-c2ccc(F)cc2)oc2cc(N(C)C)c(OC(C)C)cc12 [Example 20, 6-Dimethylamino-2-(4-fluoro-phenyl)-5-isopropoxy-benzofuran-3-carboxylic acid methylamide]
[1]; [2]
  EC50: < 1 µM
HCV NS5B; [3]
  IC50: ≤ 500 nM

## CNC(=O)c1c(-c2ccc(F)cc2)oc2ccc(F)cc12 [Example 82, 5-Fluoro-2-(4-fluoro-phenyl)-benzofuran-3-carboxylic acid methylamide]
[1]; [2]
  EC50: < 30 µM
HCV NS5B; [3]
  IC50: 500 to 5000 nM

## C=CCN(c1cc2oc(-c3ccc(F)cc3)c(C(=O)NC)c2cc1OC(C)C)S(C)(=O)=O [Example 195, 6-(Allyl-methanesulfonyl-amino)-2-(4-fluoro-phenyl)-5-isopropoxy-benzofuran-3-carboxylic acid methylamide]
[1]; [7]
  EC50: < 1 µM
HCV NS5B; [8]
  IC50: ≤ 500 nM

## CNC(=O)c1c(-c2ccc(F)cc2)oc2cc(-c3c(C)n[nH]c3C)c(OC)cc12 [Example 256, 6-(3,5-Diinethyl-1H-pyrazol-4-yl)-2-(4-fluoro-phenyl)-5-methoxy-benzofuran-3-carboxylic acid methylamide]
[1]; [9]
  EC50: < 1 µM
HCV NS5B; [10]
  IC50: ≤ 500 nM

## CNC(=O)c1c(-c2ccc(F)cc2)oc2cc(N3CCOCC3)c(OCc3cccc(C(=O)O)c3)cc12 [Example 268, 3-[2-(4-Fluoro-phenyl)-3-methylcarbamoyl-6-morpholin-4-yl-benzofuran-5-yloxymethyl]-benzoic acid]
[1]; [9]
  EC50: < 10 µM
HCV NS5B; [10]
  IC50: ≤ 500 nM
